Tests used:
human β1 integrin = target: T1, human β1 integrin (Homo sapiens, UniProt P05556); assay: Flow cytometry of integrin activity with 12G10 antibody on K562 cells; assay type: cell-based; conditions: 1 mM Mn^2+ rather than 1 mM Ca^2+, 0.5 mM Mg^2+
T1 construct: endogenous in cells; host or cells: K562 human lymphocytes
Description: For analysis of integrin activity by flow cytometry, K562 suspension cells were stimulated with ultrasound for 20 minutes, followed by centrifugation and re-suspension in ice cold media. Cells were stained with primary antibody (12G10), diluted to 10 μg/ml in Dulbecco's PBS containing calcium and magnesium (Lonza), 0.02% (w/v) sodium azide on ice for 1 hour. The cells were washed with PBS, 1% (v/v) fetal bovine serum, followed by 10 μg/ml secondary antibody diluted in PBS, 10% (v/v) fetal bovine serum for 30 minutes. For manganese stimulation all antibodies and wash buffers were supplemented with 1 mM MnCl2. Cells were then fixed with 2% (w/v) paraformaldehyde, and analysed on a Dako Cyan flow cytometer, using an excitation wavelength of 488 nm. A 530/30 nm bandpass filter was used to detect the emissions.

MEFs = assay: Adhesion complex (focal adhesion) formation assay, vinculin/actin immunofluorescence; assay type: cell-based, mouse; conditions: 200 nM BIM; MEFs prespread on 50K
Description: (§1) For immunofluorescence, 13-mm diameter glass coverslips, placed into 6-well plates, were derivatized for 30 minutes with 1 mM sulpho-m-maleimidobenzoyl-N-hydrosuccinimide ester (Perbio). For spreading on mab13 monoclonal antibody, coverslips were pre-coated with 10 μg/ml goat anti-Rat IgG FC fragment (Jackson, Stratech Scientific). For biochemical assays, 6-well tissue culture-treated plastic plates (Corning BV) were coated directly with ligand. Coverslips or dishes were coated for 2 hours at room temperature with 10 μg/ml 50K, H/0, PLL or mab13 in Dulbecco's PBS containing calcium and magnesium (Lonza), and blocked with 10 mg/ml heat-denatured BSA for 30 minutes at room temperature (Humphries et al., 1986). Equivalent ligand-coating between glass and plastic was tested by ELISA using the anti-fibronectin mAb 333 (Bass et al., 2007a). To prevent de novo synthesis of ECM and other syndecan-4 ligands, cells were treated with 25 μg/ml cycloheximide (Sigma) for 2 hours prior to detachment (Couchman et al., 1983) and were then detached with 0.5 mg/ml trypsin. […] Images were compiled and analyzed using ImageJ software. The total area of adhesion complexes per cell was calculated by recording the area of fluorescence intensity above an empirically determined threshold, following rolling ball background subtraction. […]

Rac1 = assay: GTPase activation assay: Rac1 effector pull-down with quantitative Western blotting; assay type: cell-based, mouse; conditions: 200 nM BIM, 30 min before and throughout stimulation; MEFs prespread on 50K
Description: as §1

staining of K562 lymphocytes with 12G10 (β1 integrin activation epitope) (human β1 integrin)	Structure (SMILES)	effect on focal adhesion formation in response to H/0 (MEFs)	effect on ultrasound-induced Rac1 activation (Rac1)
enhanced	[Cl][Mn][Cl] [Mn^2+, MnCl2]		
	CN(C)CCCn1cc(C2=C(c3c[nH]c4ccccc34)C(=O)NC2=O)c2ccccc21 [BIM, bisindolylmaleimide I]	blocked focal adhesion formation in response to H/0	did not prevent ultrasound-induced Rac1 activation

From US20090216158A1, “ULTRASOUND AND TISSUE REPAIR” (priority 2008, published 2009)
